Species: Rattus norvegicus
Experiment: Open TG-GATES - Regimen: Daily Repeat
Type: toxicity, organism-based, Sprague-Dawley
Parameters: regimen Daily Repeat, gender Male, age 6 weeks
Conditions: in vivo, po, route gavage; for APTT / Bas / Eos / Fbg / Hb / Ht / Lym / MCHC / MCV / Mono / Neu / PT / Plat / RBC / Ret / WBC: tissue Blood; for KIDNEY_L / KIDNEY_R / KIDNEY_TOTAL: tissue Kidney; for LIVER: tissue Liver; for ALP / ALT / AST / BUN / CRE / Ca / Cl / DBIL / GLC / IP / K / LDH / Na / PL / RALB / TBIL / TC / TG / TP / gamma-GTP: tissue Plasma
[1] = 30 mg/kg, 72 h, dose level Middle, time 3 day
[2] = 30 mg/kg, […], dose level Middle, time 7 day
[3] = 30 mg/kg, […], dose level Middle, time 14 day
[4] = 30 mg/kg, […], dose level Middle, time 28 day
[5] = 100 mg/kg, 72 h, dose level High, time 3 day
[6] = 100 mg/kg, […], dose level High, time 7 day
[7] = 100 mg/kg, […], dose level High, time 14 day
[8] = 100 mg/kg, […], dose level High, time 28 day

## CS(=O)(=O)Nc1ccc([N+](=O)[O-])cc1Oc1ccccc1 [NIMESULIDE]
[1]
  TERMINAL_BW: 222.3 g
  APTT: 17.6 s
  Bas: 0%
  Eos: 1.2%
  Fbg: 211.4 mg/dL
  Hb: 13.8 g/dL
  Ht: 41.1%
  Lym: 68.6%
  MCHC: 33.6%
  MCV: 64 fL
  Mono: 10.6%
  Neu: 19.4%
  PT: 11.3 s
  Plat: 114.9 x10_4/uL
  RBC: 642.4 x10_4/ul
  Ret: 9%
  WBC: 80.8 x10_2/uL
  KIDNEY_L: 1 g
  KIDNEY_R: 1.1 g
  KIDNEY_TOTAL: 2.1 g
  LIVER: 11.4 g
  ALP: 888 IU/L
  ALT: 38 IU/L
  AST: 64.6 IU/L
  BUN: 19.6 mg/dL
  CRE: 0.6 mg/dL
  Ca: 10.7 mg/dL
  Cl: 104 meq/L
  DBIL: 0.054 mg/dL
  GLC: 196.8 mg/dL
  IP: 8.2 mg/dL
  K: 4.5 meq/L
  LDH: 91.4 IU/L
  Na: 140.8 meq/L
  PL: 159.2 mg/dL
  RALB: 4.1 g/dL
  TBIL: 0.4 mg/dL
  TC: 90.8 mg/dL
  TG: 75.6 mg/dL
  TP: 5.7 g/dL
  gamma-GTP: 0.8 IU/L
[2]
  TERMINAL_BW: 250.1 g
  APTT: 17.5 s
  Bas: 0%
  Eos: 1.4%
  Fbg: 221.8 mg/dL
  Hb: 14 g/dL
  Ht: 41.4%
  Lym: 78.4%
  MCHC: 33.9%
  MCV: 63.3 fL
  Mono: 6%
  Neu: 14%
  PT: 11.2 s
  Plat: 135 x10_4/uL
  RBC: 655 x10_4/ul
  Ret: 6.6%
  WBC: 109.7 x10_2/uL
  KIDNEY_L: 1.1 g
  KIDNEY_R: 1.1 g
  KIDNEY_TOTAL: 2.2 g
  LIVER: 13 g
  ALP: 823.8 IU/L
  ALT: 36.6 IU/L
  AST: 60.6 IU/L
  BUN: 21.2 mg/dL
  CRE: 0.6 mg/dL
  Ca: 10.6 mg/dL
  Cl: 106 meq/L
  DBIL: 0.018 mg/dL
  GLC: 208.6 mg/dL
  IP: 7.5 mg/dL
  K: 4.5 meq/L
  LDH: 91.2 IU/L
  Na: 141.8 meq/L
  PL: 139.2 mg/dL
  RALB: 4.1 g/dL
  TBIL: 0.4 mg/dL
  TC: 74.2 mg/dL
  TG: 72.2 mg/dL
  TP: 5.9 g/dL
  gamma-GTP: 0.8 IU/L
[3]
  TERMINAL_BW: 313 g
  APTT: 16.8 s
  Bas: 0%
  Eos: 1.2%
  Fbg: 227.6 mg/dL
  Hb: 14.2 g/dL
  Ht: 41.4%
  Lym: 76.2%
  MCHC: 34.4%
  MCV: 61.6 fL
  Mono: 6.6%
  Neu: 16.4%
  PT: 11.7 s
  Plat: 126.4 x10_4/uL
  RBC: 672.8 x10_4/ul
  Ret: 6.1%
  WBC: 127 x10_2/uL
  KIDNEY_L: 1.2 g
  KIDNEY_R: 1.3 g
  KIDNEY_TOTAL: 2.5 g
  LIVER: 17 g
  ALP: 888.2 IU/L
  ALT: 33 IU/L
  AST: 66.4 IU/L
  BUN: 23 mg/dL
  CRE: 0.6 mg/dL
  Ca: 10.7 mg/dL
  Cl: 105 meq/L
  DBIL: 0.004 mg/dL
  GLC: 195.4 mg/dL
  IP: 7.2 mg/dL
  K: 4.6 meq/L
  LDH: 82.2 IU/L
  Na: 141 meq/L
  PL: 155.2 mg/dL
  RALB: 4.1 g/dL
  TBIL: 0.4 mg/dL
  TC: 77 mg/dL
  TG: 120 mg/dL
  TP: 6 g/dL
  gamma-GTP: 1 IU/L
[4]
  TERMINAL_BW: 399.9 g
  APTT: 18.5 s
  Bas: 0%
  Eos: 1%
  Fbg: 219.2 mg/dL
  Hb: 15.3 g/dL
  Ht: 45%
  Lym: 82.8%
  MCHC: 34.1%
  MCV: 58.1 fL
  Mono: 6%
  Neu: 10.4%
  PT: 11.7 s
  Plat: 112.1 x10_4/uL
  RBC: 775.2 x10_4/ul
  Ret: 2.8%
  WBC: 129 x10_2/uL
  KIDNEY_L: 1.4 g
  KIDNEY_R: 1.4 g
  KIDNEY_TOTAL: 2.8 g
  LIVER: 17.8 g
  ALP: 831.6 IU/L
  ALT: 37.2 IU/L
  AST: 65 IU/L
  BUN: 25.8 mg/dL
  CRE: 0.6 mg/dL
  Ca: 10.5 mg/dL
  Cl: 107.2 meq/L
  DBIL: 0.002 mg/dL
  GLC: 198.4 mg/dL
  IP: 7 mg/dL
  K: 4.6 meq/L
  LDH: 92.6 IU/L
  Na: 144 meq/L
  PL: 169 mg/dL
  RALB: 4.1 g/dL
  TBIL: 0.4 mg/dL
  TC: 80.4 mg/dL
  TG: 159.4 mg/dL
  TP: 6.3 g/dL
  gamma-GTP: 1.4 IU/L
[5]
  TERMINAL_BW: 201.1 g
  APTT: 17.3 s
  Bas: 0%
  Eos: 1.4%
  Fbg: 222 mg/dL
  Hb: 14.1 g/dL
  Ht: 41.6%
  Lym: 66.8%
  MCHC: 34%
  MCV: 64.1 fL
  Mono: 8.6%
  Neu: 22.8%
  PT: 11.6 s
  Plat: 113.5 x10_4/uL
  RBC: 649.4 x10_4/ul
  Ret: 6.7%
  WBC: 100.9 x10_2/uL
  KIDNEY_L: 0.9 g
  KIDNEY_R: 0.9 g
  KIDNEY_TOTAL: 1.9 g
  LIVER: 10.5 g
  ALP: 841.4 IU/L
  ALT: 37.4 IU/L
  AST: 63.8 IU/L
  BUN: 21.8 mg/dL
  CRE: 0.5 mg/dL
  Ca: 10.9 mg/dL
  Cl: 105 meq/L
  DBIL: 0.06 mg/dL
  GLC: 178.2 mg/dL
  IP: 6.7 mg/dL
  K: 4.4 meq/L
  LDH: 97.2 IU/L
  Na: 141.4 meq/L
  PL: 168.2 mg/dL
  RALB: 4.1 g/dL
  TBIL: 0.3 mg/dL
  TC: 91.2 mg/dL
  TG: 60.6 mg/dL
  TP: 5.6 g/dL
  gamma-GTP: 1.8 IU/L
[6]
  TERMINAL_BW: 235.6 g
  APTT: 19.1 s
  Bas: 0%
  Eos: 1.2%
  Fbg: 275.5 mg/dL
  Hb: 13.3 g/dL
  Ht: 39.3%
  Lym: 62.5%
  MCHC: 33.7%
  MCV: 63 fL
  Mono: 6.2%
  Neu: 30.2%
  PT: 11.2 s
  Plat: 135.9 x10_4/uL
  RBC: 624.5 x10_4/ul
  Ret: 11.2%
  WBC: 138.2 x10_2/uL
  KIDNEY_L: 1.1 g
  KIDNEY_R: 1.1 g
  KIDNEY_TOTAL: 2.2 g
  LIVER: 12.7 g
  ALP: 860.8 IU/L
  ALT: 32.2 IU/L
  AST: 63.2 IU/L
  BUN: 20 mg/dL
  CRE: 0.6 mg/dL
  Ca: 10.9 mg/dL
  Cl: 105.5 meq/L
  DBIL: 0.0275 mg/dL
  GLC: 199.5 mg/dL
  IP: 6.6 mg/dL
  K: 4.4 meq/L
  LDH: 75.8 IU/L
  Na: 141.2 meq/L
  PL: 166.8 mg/dL
  RALB: 4 g/dL
  TBIL: 0.4 mg/dL
  TC: 92 mg/dL
  TG: 68.5 mg/dL
  TP: 6 g/dL
  gamma-GTP: 1.5 IU/L
[7]
  TERMINAL_BW: 287.5 g
  APTT: 17.7 s
  Bas: 0%
  Eos: 1.4%
  Fbg: 250.2 mg/dL
  Hb: 13.6 g/dL
  Ht: 39.4%
  Lym: 55.8%
  MCHC: 34.4%
  MCV: 65.7 fL
  Mono: 9.8%
  Neu: 32.8%
  PT: 11.6 s
  Plat: 141.2 x10_4/uL
  RBC: 605 x10_4/ul
  Ret: 14%
  WBC: 143.9 x10_2/uL
  KIDNEY_L: 1.2 g
  KIDNEY_R: 1.3 g
  KIDNEY_TOTAL: 2.5 g
  LIVER: 16.1 g
  ALP: 842 IU/L
  ALT: 31.4 IU/L
  AST: 60.8 IU/L
  BUN: 24.6 mg/dL
  CRE: 0.6 mg/dL
  Ca: 10.7 mg/dL
  Cl: 105.4 meq/L
  DBIL: 0.008 mg/dL
  GLC: 184.8 mg/dL
  IP: 7 mg/dL
  K: 4.5 meq/L
  LDH: 79.8 IU/L
  Na: 141.6 meq/L
  PL: 171 mg/dL
  RALB: 4 g/dL
  TBIL: 0.4 mg/dL
  TC: 90.4 mg/dL
  TG: 98.8 mg/dL
  TP: 5.9 g/dL
  gamma-GTP: 2.2 IU/L
[8]
  TERMINAL_BW: 332.9 g
  APTT: 18.9 s
  Bas: 0%
  Eos: 1.4%
  Fbg: 235.2 mg/dL
  Hb: 15.4 g/dL
  Ht: 45.6%
  Lym: 71.8%
  MCHC: 33.7%
  MCV: 59.4 fL
  Mono: 8%
  Neu: 19.2%
  PT: 11.9 s
  Plat: 118.9 x10_4/uL
  RBC: 769.2 x10_4/ul
  Ret: 4%
  WBC: 126.2 x10_2/uL
  KIDNEY_L: 1.3 g
  KIDNEY_R: 1.3 g
  KIDNEY_TOTAL: 2.6 g
  LIVER: 17 g
  ALP: 656.6 IU/L
  ALT: 27.6 IU/L
  AST: 57.8 IU/L
  BUN: 24 mg/dL
  CRE: 0.6 mg/dL
  Ca: 10.9 mg/dL
  Cl: 107.4 meq/L
  DBIL: 0.018 mg/dL
  GLC: 180.6 mg/dL
  IP: 6.8 mg/dL
  K: 4.5 meq/L
  LDH: 71.2 IU/L
  Na: 144.4 meq/L
  PL: 182.2 mg/dL
  RALB: 4.2 g/dL
  TBIL: 0.4 mg/dL
  TC: 100.4 mg/dL
  TG: 102.6 mg/dL
  TP: 6.2 g/dL
  gamma-GTP: 1.6 IU/L
